Reference: US20030033631A1, “Method for reducing pest damage to corn by treating transgenic corn seeds with thiamethoxam pesticide” (Monsanto Technology, L.L.C., priority 2000, published 2003)

Tested on: western and northern corn rootworm
Assay: Field trial of corn rootworm feeding damage to corn roots (Iowa 1-6 rating)
Format: in vivo
Settings: Cry3Bb.11231 transgenic corn seeds treated with thiamethoxam (300 or 400 gm AI/100 kg seed) compared with transgenic seeds without pesticide treatment, Iowa 1-6 root rating
Description: Field trials for the determination of efficacy of transgenic event Cry3Bb.11231 in corn seed in combination with corn root worm pesticide seed treatments against western and northern corn rootworm.
Field trials can be run in accordance with pertinent protocols and in conformance with USDA notification requirements. The purpose of the trials is to determine the efficacy of transgenic event Cry3Bb.11231 in corn seed in combination with corn root worm seed treatments against western and northern corn root worm.
For each growing site that is selected, the plot design would included the following:
The following seed treatment combinations can be used for each growing area: […]
The determination of damage by corn rootworm can be made according to the following protocol. […] In that system, the root systems of 10 corn plants per plot are recovered and scored using the 1-6 rating scale, where: 1=no injury or only a few minor feeding scars, 2=feeding injury evident, but no roots eaten back to 1½ inches of the plant, 3=at least one root eaten off to within 1½ inches of the plant, but never an entire node of roots destroyed, 4=one node of roots eaten back to within 1½ inches of the plant, 5=two nodes (circles) of roots eaten back to within 1½ inches of the plant, 6=three nodes (circles) of roots eaten back to within 1½ inches of the plant.

CN1COCN(Cc2cnc(Cl)s2)/C1=N\[N+](=O)[O-] [thiamethoxam, 3-[(2-chloro-5-thiazolyl)mehthyl]tetrahydro-5-methyl-N-nitro-4H-1,3,5-oxadiazin-4-imine]
resistance to corn rootworm damage: more resistant to corn rootworm damage than the transgenic seeds without such pesticide treatment
